Measured values from patent publication US20250195445A1, “LONG-LASTING ANTIMICROBIAL COMPOSITIONS CONTAINING CATIONIC ACTIVE AGENTS AND ANIONIC EXCIPIENTS AND USES” (priority 2022, published 2025).

Experiment: isothermal nanotitration calorimetry, interaction with beta-cyclodextrin
Type: physicochemical
Conditions: for strength of interaction with beta-cyclodextrin: adimensional values
Description: In adimensional values: 1000×10^6 and 737×10^6, respectively (Table 6). [table]

Row | Structure (SMILES) | strength of interaction with beta-cyclodextrin | interaction with beta-cyclodextrin relative to interaction of sodium lauryl sulfate with beta-cyclodextrin (calorimetric analyses)
1 | N=C(NCCCCCCNC(=N)NC(=N)Nc1ccc(Cl)cc1)NC(=N)Nc1ccc(Cl)cc1 [chlorhexidine digluconate, 1,1′-hexamethylene bis(5-(p-chlorophenyl)biguanide)] | 1000×10^6 | about 1000 times
2 | CCCCCCCCCCCCOS(=O)(=O)[O-].[Na+] [sodium lauryl sulfate] | 737×10^6 | 
